Where two headings read alike, the source gives them in different places.
Key:
Assay in all cases: biochemical
Parameters in all cases: DiscoveRx KINOMEscan active site-directed competition binding; percent of control kinase bound to immobilised ligand
CSNK1G1 = CSNK1G1 (Homo sapiens, UniProt Q9HCP0)
EPHA1 = target: T1, EPHA1 (Homo sapiens, UniProt P21709)
T1 sequence (P21709 1-976): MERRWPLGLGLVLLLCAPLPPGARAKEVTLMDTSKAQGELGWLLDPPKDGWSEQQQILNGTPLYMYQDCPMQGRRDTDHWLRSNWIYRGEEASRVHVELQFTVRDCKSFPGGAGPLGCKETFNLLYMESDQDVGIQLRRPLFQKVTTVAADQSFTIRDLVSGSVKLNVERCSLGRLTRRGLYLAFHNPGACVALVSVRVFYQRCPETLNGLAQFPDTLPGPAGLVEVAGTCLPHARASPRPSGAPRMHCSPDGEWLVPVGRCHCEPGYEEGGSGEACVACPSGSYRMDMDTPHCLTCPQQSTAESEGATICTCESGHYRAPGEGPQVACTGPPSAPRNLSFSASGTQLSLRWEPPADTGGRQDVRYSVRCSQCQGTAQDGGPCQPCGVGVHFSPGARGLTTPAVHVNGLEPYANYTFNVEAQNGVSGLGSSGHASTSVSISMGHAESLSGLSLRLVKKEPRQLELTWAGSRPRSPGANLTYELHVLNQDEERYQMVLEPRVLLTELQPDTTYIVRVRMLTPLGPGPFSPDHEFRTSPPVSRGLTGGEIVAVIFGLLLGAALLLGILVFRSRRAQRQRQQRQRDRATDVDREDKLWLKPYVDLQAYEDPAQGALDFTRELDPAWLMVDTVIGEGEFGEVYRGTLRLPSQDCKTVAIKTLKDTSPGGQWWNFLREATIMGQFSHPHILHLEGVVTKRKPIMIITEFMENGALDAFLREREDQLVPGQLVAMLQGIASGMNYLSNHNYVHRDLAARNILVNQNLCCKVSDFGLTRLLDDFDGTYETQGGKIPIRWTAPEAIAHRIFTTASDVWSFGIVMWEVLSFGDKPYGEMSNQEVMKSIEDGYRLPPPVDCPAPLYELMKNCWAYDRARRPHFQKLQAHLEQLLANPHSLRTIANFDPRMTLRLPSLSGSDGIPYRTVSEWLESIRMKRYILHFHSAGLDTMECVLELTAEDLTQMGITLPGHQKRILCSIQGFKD

LRRK2 = LRRK2 (Homo sapiens, UniProt Q5S007)
PLK4 = target: T2, PLK4 (Homo sapiens, UniProt O00444)
T2 sequence (O00444 1-970): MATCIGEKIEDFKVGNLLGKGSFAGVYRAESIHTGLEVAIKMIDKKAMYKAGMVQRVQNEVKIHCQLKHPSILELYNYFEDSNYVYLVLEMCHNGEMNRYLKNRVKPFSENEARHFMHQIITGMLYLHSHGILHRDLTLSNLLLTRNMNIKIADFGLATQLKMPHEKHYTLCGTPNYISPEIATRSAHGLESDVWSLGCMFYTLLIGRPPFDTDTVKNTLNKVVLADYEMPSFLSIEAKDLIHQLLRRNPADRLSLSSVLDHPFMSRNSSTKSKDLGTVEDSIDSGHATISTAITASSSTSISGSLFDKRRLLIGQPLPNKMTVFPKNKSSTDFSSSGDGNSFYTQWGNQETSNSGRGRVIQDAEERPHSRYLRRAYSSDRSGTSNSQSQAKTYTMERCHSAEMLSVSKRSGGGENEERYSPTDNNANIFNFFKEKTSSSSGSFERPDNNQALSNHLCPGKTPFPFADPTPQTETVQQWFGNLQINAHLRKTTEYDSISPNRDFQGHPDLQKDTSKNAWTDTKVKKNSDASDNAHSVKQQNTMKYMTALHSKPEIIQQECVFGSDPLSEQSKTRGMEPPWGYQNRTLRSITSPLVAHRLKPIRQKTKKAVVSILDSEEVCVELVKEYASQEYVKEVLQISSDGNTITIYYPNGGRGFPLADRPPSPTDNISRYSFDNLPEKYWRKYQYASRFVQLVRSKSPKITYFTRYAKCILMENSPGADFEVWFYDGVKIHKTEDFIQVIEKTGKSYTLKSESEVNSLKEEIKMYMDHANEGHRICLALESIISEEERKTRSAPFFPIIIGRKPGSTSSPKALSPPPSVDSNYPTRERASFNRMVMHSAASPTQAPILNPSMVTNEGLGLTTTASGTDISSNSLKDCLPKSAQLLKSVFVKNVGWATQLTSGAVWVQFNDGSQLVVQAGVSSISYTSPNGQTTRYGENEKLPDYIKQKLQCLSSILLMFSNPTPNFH

[1] = read-out: Talazoparib (BMN 673) / %Ctrl @ 10000nM
[2] = read-out: Olaparib / %Ctrl @ 10000nM
[3] = read-out: Niraparib (MK-4827) / %Ctrl @ 10000nM
[4] = read-out: Rucaparib / %Ctrl @ 10000nM, binding competition, % of control

Chain of CSNK1G1 (Q9HCP0 whole entry): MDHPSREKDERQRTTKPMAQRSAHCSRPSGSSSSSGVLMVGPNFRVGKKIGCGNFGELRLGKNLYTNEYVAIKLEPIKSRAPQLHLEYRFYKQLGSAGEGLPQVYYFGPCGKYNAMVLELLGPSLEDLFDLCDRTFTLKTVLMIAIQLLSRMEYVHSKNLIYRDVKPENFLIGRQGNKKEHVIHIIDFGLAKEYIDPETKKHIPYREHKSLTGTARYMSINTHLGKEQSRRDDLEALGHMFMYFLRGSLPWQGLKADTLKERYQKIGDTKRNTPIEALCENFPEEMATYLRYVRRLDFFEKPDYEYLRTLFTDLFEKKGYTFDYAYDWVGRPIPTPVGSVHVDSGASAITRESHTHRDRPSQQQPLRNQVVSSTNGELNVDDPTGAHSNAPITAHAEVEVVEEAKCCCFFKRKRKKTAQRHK
Chain of LRRK2 (Q5S007 whole entry): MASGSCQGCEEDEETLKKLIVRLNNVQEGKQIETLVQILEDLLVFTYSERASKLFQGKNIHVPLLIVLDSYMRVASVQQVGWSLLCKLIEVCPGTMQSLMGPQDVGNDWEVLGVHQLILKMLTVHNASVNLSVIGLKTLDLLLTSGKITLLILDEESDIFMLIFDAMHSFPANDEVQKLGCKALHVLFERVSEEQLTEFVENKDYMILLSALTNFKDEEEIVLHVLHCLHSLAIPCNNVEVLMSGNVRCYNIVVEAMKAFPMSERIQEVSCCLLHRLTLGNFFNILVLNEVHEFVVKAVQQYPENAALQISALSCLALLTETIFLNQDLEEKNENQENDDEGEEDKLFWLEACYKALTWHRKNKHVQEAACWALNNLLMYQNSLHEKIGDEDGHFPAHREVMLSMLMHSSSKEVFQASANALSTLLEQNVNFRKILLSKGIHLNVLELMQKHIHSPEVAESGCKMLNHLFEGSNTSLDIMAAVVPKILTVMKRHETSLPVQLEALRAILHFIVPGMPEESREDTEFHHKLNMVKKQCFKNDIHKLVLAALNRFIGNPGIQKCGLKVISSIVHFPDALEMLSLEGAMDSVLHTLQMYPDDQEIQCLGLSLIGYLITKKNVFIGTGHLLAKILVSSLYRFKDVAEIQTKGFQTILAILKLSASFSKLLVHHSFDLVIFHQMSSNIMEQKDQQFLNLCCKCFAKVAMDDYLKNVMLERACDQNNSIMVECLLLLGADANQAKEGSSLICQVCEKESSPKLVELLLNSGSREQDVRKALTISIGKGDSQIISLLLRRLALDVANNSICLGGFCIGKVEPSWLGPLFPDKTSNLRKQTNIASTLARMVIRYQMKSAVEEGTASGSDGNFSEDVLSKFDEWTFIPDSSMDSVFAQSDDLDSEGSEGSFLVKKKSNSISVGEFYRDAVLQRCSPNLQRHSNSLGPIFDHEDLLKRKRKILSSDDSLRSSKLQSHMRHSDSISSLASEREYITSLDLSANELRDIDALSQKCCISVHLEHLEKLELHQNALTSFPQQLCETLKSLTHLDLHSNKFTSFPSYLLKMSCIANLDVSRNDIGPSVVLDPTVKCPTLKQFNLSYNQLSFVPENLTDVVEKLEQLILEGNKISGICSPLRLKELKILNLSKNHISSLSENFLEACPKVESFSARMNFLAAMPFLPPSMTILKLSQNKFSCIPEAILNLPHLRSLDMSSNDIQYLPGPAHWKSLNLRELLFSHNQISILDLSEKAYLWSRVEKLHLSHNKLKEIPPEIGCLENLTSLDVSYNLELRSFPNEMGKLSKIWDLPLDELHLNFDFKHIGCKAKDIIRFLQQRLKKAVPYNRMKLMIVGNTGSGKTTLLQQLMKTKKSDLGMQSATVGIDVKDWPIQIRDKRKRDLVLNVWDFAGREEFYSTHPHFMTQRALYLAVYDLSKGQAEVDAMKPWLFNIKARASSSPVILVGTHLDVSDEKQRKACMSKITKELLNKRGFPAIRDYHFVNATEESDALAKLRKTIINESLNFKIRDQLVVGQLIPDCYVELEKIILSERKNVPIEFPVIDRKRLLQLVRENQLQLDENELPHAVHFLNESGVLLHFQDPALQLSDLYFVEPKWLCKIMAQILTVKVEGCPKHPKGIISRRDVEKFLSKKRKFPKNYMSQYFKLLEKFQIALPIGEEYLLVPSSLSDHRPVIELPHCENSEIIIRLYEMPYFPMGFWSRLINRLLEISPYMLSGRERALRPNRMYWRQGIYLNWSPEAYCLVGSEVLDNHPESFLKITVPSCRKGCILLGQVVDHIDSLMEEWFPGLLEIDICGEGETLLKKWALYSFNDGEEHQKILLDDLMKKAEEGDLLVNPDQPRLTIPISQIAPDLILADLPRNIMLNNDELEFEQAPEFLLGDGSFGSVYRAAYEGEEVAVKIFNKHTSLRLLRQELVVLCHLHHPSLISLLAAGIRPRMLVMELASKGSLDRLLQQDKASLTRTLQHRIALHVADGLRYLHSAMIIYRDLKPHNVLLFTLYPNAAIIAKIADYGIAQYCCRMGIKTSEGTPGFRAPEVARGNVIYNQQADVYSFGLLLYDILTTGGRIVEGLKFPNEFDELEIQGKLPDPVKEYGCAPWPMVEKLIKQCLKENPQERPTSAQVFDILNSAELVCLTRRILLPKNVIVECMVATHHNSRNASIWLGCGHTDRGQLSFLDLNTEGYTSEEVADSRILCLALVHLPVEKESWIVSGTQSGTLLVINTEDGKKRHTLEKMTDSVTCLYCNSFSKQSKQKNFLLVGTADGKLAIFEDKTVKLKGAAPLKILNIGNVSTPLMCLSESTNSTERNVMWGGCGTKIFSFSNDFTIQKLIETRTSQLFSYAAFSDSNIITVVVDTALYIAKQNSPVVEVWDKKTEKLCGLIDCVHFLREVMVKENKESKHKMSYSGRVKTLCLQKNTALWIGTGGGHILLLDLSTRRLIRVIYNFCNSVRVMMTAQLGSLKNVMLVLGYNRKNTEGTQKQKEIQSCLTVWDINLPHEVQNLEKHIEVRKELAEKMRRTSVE

Work on `Cn1ncnc1[C@H]1c2n[nH]c(=O)c3cc(F)cc(c23)N[C@@H]1c1ccc(F)cc1` [Talazoparib] yielded a percent of control binding at 10 µM (CSNK1G1; [1]) of 99%, a percent of control binding at 10 µM (EPHA1; [1]) of 98% and a percent of control binding at 10 µM (LRRK2; [1]) of 100%. The percent of control binding at 10 µM (PLK4; [1]) was 72%.
With `O=C(c1cc(Cc2n[nH]c(=O)c3ccccc23)ccc1F)N1CCN(C(=O)C2CC2)CC1` [Olaparib] the percent of control binding at 10 µM (CSNK1G1; [2]) was 97%, the percent of control binding at 10 µM (EPHA1; [2]) was 92% and the percent of control binding at 10 µM (LRRK2; [2]) was 100%. The percent of control binding at 10 µM (PLK4; [2]) was 91%.
`NC(=O)c1cccc2cn(-c3ccc([C@@H]4CCCNC4)cc3)nc12` [Niraparib] was tested, and the percent of control binding at 10 µM (CSNK1G1; [3]) was 98%, the percent of control binding at 10 µM (EPHA1; [3]) was 86% and the percent of control binding at 10 µM (LRRK2; [3]) was 96%. The percent of control binding at 10 µM (PLK4; [3]) was 56%.
`CNCc1ccc(-c2[nH]c3cc(F)cc4c3c2CCNC4=O)cc1` [Rucaparib] gave a percent of control binding at 10 µM (CSNK1G1; [4]) of 93%, a percent of control binding at 10 µM (EPHA1; [4]) of 99% and a percent of control binding at 10 µM (LRRK2; [4]) of 78%. The percent of control binding at 10 µM (PLK4; [4]) was 99%.

From PMC7026418, “The kinase polypharmacology landscape of clinical PARP inhibitors” (Scientific Reports, 2020)
